Results from patent US9199984B2, “Inhibition of enzymes” (CHIESI FARMACEUTICI S.p.A., priority 2012, dated 2015).

These molecules were tested against T1, human neutrophil elastase (HNE) (Homo sapiens, UniProt P08246) (assay: HNE enzyme activity assay). Settings: human leukocyte elastase, substrate MeOSuc-Ala-Ala-Pro-Val-AMC 100 μM, 25° C. for 30 minutes, fluorescence; read-out: HNE inhibition.
T1 construct: purchased Sigma E8140
T1 sequence (P08246 30-247 limits assumed): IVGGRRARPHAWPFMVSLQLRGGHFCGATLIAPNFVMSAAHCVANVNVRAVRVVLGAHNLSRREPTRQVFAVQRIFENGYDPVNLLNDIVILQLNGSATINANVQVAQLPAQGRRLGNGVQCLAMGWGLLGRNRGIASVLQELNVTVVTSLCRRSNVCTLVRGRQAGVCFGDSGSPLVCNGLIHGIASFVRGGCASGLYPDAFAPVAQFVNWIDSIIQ
Assay type: biochemical
Method: Compounds of the present invention were tested for potency in a human neutrophil elastase (HNE) enzyme activity assay.
Assays were performed in 96-well plates in a total assay volume of 100 μl. The final concentration of elastase enzyme (human leukocyte elastase, Sigma E8140) was 0.0036 units/well […]. The peptide substrate (MeOSuc-Ala-Ala-Pro-Val-AMC, Calbiochem #324740) was used at a final concentration of 100 μM. The final concentration of DMSO was 1% in the assay buffer (0.05M Tris.HCl, 0.1M NaCl, 0.1M CaCl2, 0.0005% brij-35, pH 7.5). The enzymatic reaction was started by addition of the enzyme and incubated at 25° C. for 30 minutes. After incubation, the reaction was stopped by addition of soybean trypsin inhibitor (Sigma T9003) at a final concentration of 50 μg/well. Fluorescence was measured using a Molecular Devices fluorescence plate reader using 380 nm excitation and 460 nm emission wavelengths.
A dose response to each compound was performed and the effect of compound in each experiment was expressed as a percentage inhibition of the control enzyme fluorescence. Dose response curves were plotted and compound potency (IC50) was determined. Compounds were tested in at least two separate experiments.

Row | IC50 | SMILES
1 | < 0.02 µM | Cc1c(-c2ccnn2-c2ccc(C#N)cc2)cn2nc(NC(=O)CCS(C)(=O)=O)nc2c1-c1cccc(C(F)(F)F)c1 [Example 46, N-[6-[2-(4-Cyano-phenyl)-2H-pyrazol-3-yl]-7-methyl-8-(3-trifluoromethyl-phenyl)-[1,2,4]triazolo[1,5-a]pyridin-2-yl]-3-methanesulfonyl-propionamide]
2 | < 0.02 µM | Cc1c(-c2ccnn2-c2ccc(C#N)cc2)cn2nc(NC(=O)NC3CCNCC3)nc2c1-c1cccc(C(F)(F)F)c1 [Example 50, 1-[6-[2-(4-Cyano-phenyl)-2H-pyrazol-3-yl]-7-methyl-8-(3-trifluoromethyl-phenyl)-[1,2,4]triazolo[1,5-a]pyridin-2-yl]-3-piperidin-4-yl-urea]
3 | 0.1 to 0.5 µM | Cc1c(-c2ccnn2-c2ccc(C#N)cc2)cn2cc(NC(=O)C(F)(F)F)nc2c1-c1cccc(C(F)(F)F)c1 [Example 2]
4 | 0.02 to 0.1 µM | CC(=O)Nc1nc2c(-c3cccc(OC(F)(F)F)c3)c(C)c(-c3ccnn3-c3ccc(C#N)cc3)cn2n1 [Example 44, N-[6-[2-(4-Cyano-phenyl)-2H-pyrazol-3-yl]-7-methyl-8-(3-trifluoromethoxy-phenyl)-[1,2,4]triazolo[1,5-a]pyridin-2-yl]-acetamide]
5 | < 0.02 µM | Cc1c(-c2ccnn2-c2ccc(C#N)cc2)cn2nc(NCC(=O)N(C)C)nc2c1-c1cccc(C(F)(F)F)c1 [Example 24, 2-[6-[2-(4-Cyano-phenyl)-2H-pyrazol-3-yl]-7-methyl-8-(3-trifluoromethyl-phenyl)-[1,2,4]triazolo[1,5-a]pyridin-2-ylamino]-N,N-dimethyl-acetamide]
6 | < 0.02 µM | Cc1c(-c2ccnn2-c2ccc(C#N)cc2)cn2nc(NCCCN(C)C)nc2c1-c1cccc(C(F)(F)F)c1 [Example 28, 4-{5-[2-(3-Dimethylamino-propylamino)-7-methyl-8-(3-trifluoromethyl-phenyl)-[1,2,4]triazolo[1,5-a]pyridin-6-yl]-pyrazol-1-yl}-benzonitrile]

Second part, the molecule before the results:

Row | SMILES | IC50
7 | Cc1c(-c2ccnn2-c2ccc(C#N)cc2)cn2nc(NCCCO)nc2c1-c1cccc(C(F)(F)F)c1 [Example 53, 4-{5-[2-(3-Hydroxy-propylamino)-7-methyl-8-(3-trifluoromethyl-phenyl)-[1,2,4]triazolo[1,5-a]pyridin-6-yl]-pyrazol-1-yl}-benzonitrile] | < 0.02 µM
8 | Cc1c(-c2ccnn2-c2ccc(C#N)cc2)cn2nc(NCCO)nc2c1-c1cccc(C(F)(F)F)c1 [Example 48, 4-{5-[2-(2-Hydroxy-ethylamino)-7-methyl-8-(3-trifluoromethyl-phenyl)-[1,2,4]triazolo[1,5-a]pyridin-6-yl]-pyrazol-1-yl}-benzonitrile] | < 0.02 µM
9 | Cc1c(-c2ccnn2-c2ccc(C#N)cc2)cn2nc(NC(=O)CN(C)C)nc2c1-c1cccc(C(F)(F)F)c1 [Example 14, N-[6-[2-(4-Cyano-phenyl)-2H-pyrazol-3-yl]-7-methyl-8-(3-trifluoromethyl-phenyl)-[1,2,4]triazolo[1,5-a]pyridin-2-yl]-2-dimethylamino-acetamide] | < 0.02 µM
10 | Cc1c(-c2ccnn2-c2ccc(C#N)cc2)cn2nc(NC(=O)CN3CCS(=O)(=O)CC3)nc2c1-c1cccc(C(F)(F)F)c1 [Example 21, N-[6-[1-(4-Cyano-phenyl)-1H-pyrazol-5-yl]-7-methyl-8-(3-trifluoromethyl-phenyl)-[1,2,4]triazolo[1,5-a]pyridin-2-yl]-2-(1,1-dioxothiomorpholin-4-yl)-acetamide] | < 0.02 µM
11 | Cc1c(-c2ccnn2-c2ccc(C#N)cc2)cn2c(=O)n(CCCS(C)(=O)=O)nc2c1-c1cccc(C(F)(F)F)c1 [Example 13, 4-{5-[2-(3-Methanesulfonyl-propyl)-7-methyl-3-oxo-8-(3-trifluoromethyl-phenyl)-2,3-dihydro-[1,2,4]triazolo[4,3-a]pyridin-6-yl]-pyrazol-1-yl}-benzonitrile] | 0.1 to 0.5 µM
12 | Cc1cn2cc(-c3ccnn3-c3ccc(C#N)cc3)c(C)c(-c3cccc(C(F)(F)F)c3)c2n1 [Example 5, 4-{5-[2,7-Dimethyl-8-(3-trifluoromethyl-phenyl)-imidazo[1,2-a]pyridin-6-yl]-pyrazol-1-yl}-benzonitrile] | > 0.5 µM
13 | Cc1c(-c2ccnn2-c2ccc(C#N)cc2)cn2nc(NC(=O)CCCN(C)C)nc2c1-c1cccc(C(F)(F)F)c1 [Example 16, N-[6-[2-(4-Cyano-phenyl)-2H-pyrazol-3-yl]-7-methyl-8-(3-trifluoromethyl-phenyl)-[1,2,4]triazolo[1,5-a]pyridin-2-yl]-4-dimethylamino-butyramide] | < 0.02 µM
14 | Cc1c(-c2ccnn2-c2ccc(C#N)cc2)cn2nc(NC(=O)c3ccc(S(C)(=O)=O)cc3)nc2c1-c1cccc(C(F)(F)F)c1 [Example 22, N-[6-[2-(4-Cyano-phenyl)-2H-pyrazol-3-yl]-7-methyl-8-(3-trifluoromethyl-phenyl)-[1,2,4]triazolo[1,5-a]pyridin-2-yl]-4-methanesulfonyl-benzamide] | < 0.02 µM
15 | COCCOC(=O)Nc1nc2c(-c3cccc(C(F)(F)F)c3)c(C)c(-c3ccnn3-c3ccc(C#N)cc3)cn2n1 [Example 36, [6-[2-(4-Cyano-phenyl)-2H-pyrazol-3-yl]-7-methyl-8-(3-trifluoromethyl-phenyl)-[1,2,4]triazolo[1,5-a]pyridin-2-yl]-carbamic acid 2-methoxyethyl ester] | < 0.02 µM
